Reference: patent US20220031596A1, “ANTI-AGING AGENT AND ANTI-AGING METHOD” (priority 2018, published 2022)

Experiments:
[1] = system: melatonin concentration in the plasma; assay: Evaluation of melatonin secretion promoting effect (plasma melatonin, 24-week oral ingestion); type: in vivo, human; conditions: for melatonin concentration in the plasma, 0 weeks (before ingestion): baseline; for melatonin concentration in the plasma, 0 weeks (before ingestion) / melatonin concentration in the plasma, 24 weeks (after ingestion) / melatonin concentration in the plasma, Change rate (24 weeks - 0 weeks): mean±SD
Description: In order to confirm a change in the melatonin quantity before and after ingestion of the nicotinamide mononucleotide, a test was conducted on healthy males and females aged 50 to 70 years.
As a sample of Working Example 1, a capsule formulation containing the nicotinamide mononucleotide and starch (100 mg (low dose) and 200 mg (high dose) of the nicotinamide mononucleotide in 4 capsules) (manufactured by SHINKOWA PHARMACEUTICAL Co., Ltd.) was used.
(§1) Each group consisting of five healthy males and females aged 50 to 70 years in an unbiased age group ingested the above low dose capsule formulation once a day by 4 capsules for 24 weeks (total 10 subjects, a low dose group: 100 mg/daily ingestion). On the other hand, each group consisting of five healthy males and females aged 50 to 70 years in the unbiased age group ingested the above high dose capsule formulation once a day by 4 capsules for 24 weeks (total 10 subjects, a high dose group: 200 mg/daily ingestion). In order to conduct appropriate evaluations, those who had been regularly using medical products for chronic diseases, those who had been consuming healthy foods that may affect clinical research, and those who were currently participating in other clinical researches or clinical trials, or had participated in other clinical researches or clinical trials within the last three months were excluded from the subject for the evaluation. The capsule formulations were ingested at 10 am (between meals and fasting state) together with water or lukewarm water (oral administration).
Measurement of the melatonin quantity in plasma was conducted by requesting the measurement to an external public organization according to a usual method. FIGS. 2a to 2c indicates transitions of the melatonin concentration (pg/ml) in the plasma for 24 weeks. FIG. 2a represents the transitions of the whole subjects; FIG. 2b represents the transitions of the male subjects; FIG. 2c represents the transitions of the female subjects. FIGS. 3a to 3c indicates change rates (%) of the blood melatonin concentration up to 24 weeks when the nicotinamide mononucleotide was orally administered to the subjects for 24 weeks. FIG. 3a represents the change rates of the whole subjects; FIG. 3b represents the change rates of the male subjects; FIG. 3c represents the change rates of the female subjects. Further, Table 1 indicates the numerical values of the melatonin concentration (pg/ml) in the plasma before the ingestion of the nicotinamide mononucleotide (0 weeks) and after the ingestion of the nicotinamide mononucleotide (24 weeks). In addition, the numerical values represent mean values±standard deviation.

[2] = system: prolactin concentration in the plasma; assay: Evaluation of prolactin secretion promoting effect (plasma prolactin, 24-week oral ingestion); type: in vivo, human; conditions: for prolactin concentration in the plasma, 0 weeks (before ingestion) / prolactin concentration in the plasma, 24 weeks (after ingestion) / prolactin concentration in the plasma, Change rate (24 weeks - 0 weeks): Low Dose Group (100 mg/daily, oral), mean±SD; for prolactin concentration in the plasma, 0 weeks (before ingestion): baseline
Description: In order to confirm a change in the prolactin quantity before and after ingestion of the nicotinamide mononucleotide, a test was conducted on healthy males and females aged 50 to 70 years.
As a sample of Working Example 9, a capsule formulation containing the nicotinamide mononucleotide and starch (100 mg of the nicotinamide mononucleotide in 4 capsules) (manufactured by SHINKOWA PHARMACEUTICAL Co., Ltd.) was used.
as §1, with “above” for “above low dose capsule formulation once a day by 4 capsules for 24 weeks (total 10 subjects, a low dose group: 100 mg/daily ingestion). On the other hand, each group consisting of five healthy males and females aged 50 to 70 years in the unbiased age group ingested the above”, “100” for “a high dose group: 200”, “trials” for “trials,”
Measurement of the prolactin quantity in the plasma was conducted by requesting the measurement to an external public organization according to a usual method. FIGS. 18a to 18c indicate transitions of the prolactin concentration (ng/ml) in the plasma for 24 weeks. FIG. 18a represents the transitions of the whole subjects; FIG. 18b represents the transitions of the male subjects; FIG. 18c represents the transitions of the female subjects. Further, FIGS. 19a to 19c indicate change rates (%) of the blood prolactin concentration up to 24 weeks when the nicotinamide mononucleotide was orally administered to the subjects for 24 weeks. FIG. 19a represents the change rates of the whole subjects; FIG. 19b represents the change rates of the male subjects; FIG. 19c represents the change rates of the female subjects. Further, Table 9 indicates the numerical values of the prolactin concentration (ng/ml) in the plasma before the ingestion of the nicotinamide mononucleotide (0 weeks) and after the ingestion of the nicotinamide mononucleotide (24 weeks). Note that the numerical values represent mean values±standard deviation.

[3] = Female, High Dose Group (200 mg/daily, oral)
[4] = Female, Low Dose Group (100 mg/daily, oral)
[5] = Male, High Dose Group (200 mg/daily, oral)
[6] = Male, Low Dose Group (100 mg/daily, oral)
[7] = Whole Subjects, High Dose Group (200 mg/daily, oral)
[8] = Whole Subjects, Low Dose Group (100 mg/daily, oral)

NC(=O)c1ccc[n+]([C@@H]2O[C@H](COP(=O)([O-])O)[C@@H](O)[C@H]2O)c1 [nicotinamide mononucleotide]
melatonin concentration in the plasma, 0 weeks (before ingestion) [1, 3]: 5.77 ± 3.00 pg/mL
melatonin concentration in the plasma, 24 weeks (after ingestion) [1, 3]: 11.81 ± 8.17 pg/mL
melatonin concentration in the plasma, Change rate (24 weeks - 0 weeks) [1, 3]: 6.03 ± 5.90 pg/mL
melatonin concentration in the plasma, 0 weeks (before ingestion) [1, 4]: 7.15 ± 4.51 pg/mL
melatonin concentration in the plasma, 24 weeks (after ingestion) [1, 4]: 9.37 ± 4.85 pg/mL
melatonin concentration in the plasma, Change rate (24 weeks - 0 weeks) [1, 4]: 2.21 ± 3.19 pg/mL
melatonin concentration in the plasma, 0 weeks (before ingestion) [1, 5]: 3.82 ± 1.41 pg/mL
melatonin concentration in the plasma, 24 weeks (after ingestion) [1, 5]: 6.68 ± 4.04 pg/mL
melatonin concentration in the plasma, Change rate (24 weeks - 0 weeks) [1, 5]: 2.86 ± 3.10 pg/mL
melatonin concentration in the plasma, 0 weeks (before ingestion) [1, 6]: 2.76 ± 1.71 pg/mL
melatonin concentration in the plasma, 24 weeks (after ingestion) [1, 6]: 6.20 ± 3.60 pg/mL
melatonin concentration in the plasma, Change rate (24 weeks - 0 weeks) [1, 6]: 3.44 ± 3.57 pg/mL
melatonin concentration in the plasma, 0 weeks (before ingestion) [1, 7]: 4.80 ± 2.44 pg/mL
melatonin concentration in the plasma, Change rate (24 weeks - 0 weeks) [1, 7]: 4.45 ± 4.75 pg/mL
melatonin concentration in the plasma, 0 weeks (before ingestion) [1, 8]: 4.96 ± 3.96 pg/mL
melatonin concentration in the plasma, 24 weeks (after ingestion) [1, 8]: 7.78 ± 4.36 pg/mL
melatonin concentration in the plasma, Change rate (24 weeks - 0 weeks) [1, 8]: 2.82 ± 3.26 pg/mL
melatonin concentrations in the plasma compared to before ingestion, statistical significance ([1]; as a whole, both the low dose group and the high dose group, p<0.05): a significant difference was observed
melatonin concentrations in plasma, effect of ingestion (in words) ([1]; oral, 100 or 200 mg/daily, 24 weeks, FIGS. 2a-2c, 3a-3c): increased
prolactin concentration in the plasma, 0 weeks (before ingestion) ([2]; Female): 8.50 ± 2.71 ng/mL
prolactin concentration in the plasma, 24 weeks (after ingestion) ([2]; Female): 10.15 ± 3.22 ng/mL
prolactin concentration in the plasma, Change rate (24 weeks - 0 weeks) ([2]; Female): 1.66 ± 4.32 ng/mL
prolactin concentration in the plasma, 0 weeks (before ingestion) ([2]; Male): 9.23 ± 1.92 ng/mL
prolactin concentration in the plasma, 24 weeks (after ingestion) ([2]; Male): 9.58 ± 2.47 ng/mL
prolactin concentration in the plasma, Change rate (24 weeks - 0 weeks) ([2]; Male): 0.35 ± 1.40 ng/mL
prolactin concentration in the plasma, 0 weeks (before ingestion) ([2]; Whole Subjects): 8.86 ± 2.25 ng/mL
prolactin concentration in the plasma, 24 weeks (after ingestion) ([2]; Whole Subjects): 9.87 ± 2.72 ng/mL
prolactin concentration in the plasma, Change rate (24 weeks - 0 weeks) ([2]; Whole Subjects): 1.00 ± 3.10 ng/mL
prolactin concentrations in the plasma, effect of ingestion (in words) ([2]; oral, 100 mg/daily, 24 weeks, FIGS. 18a-18c, 19a-19c): increased
